Assay results as given in patent US9353090B2, “Heterocyclic carboxylic acids as activators of soluble guanylate cyclase” (Boehringer Ingelheim International GmbH, priority 2014, dated 2016).
Values after ≈ are worked out from the molar mass of the structure shown.

Legend:
[1] = physchem; conditions: kinetic from dmso stock
Method: Solubility is measured by the following method.
100 uL, 10 mM DMSO stock solution of each compound is prepared in a 96 well plate format. The experiment is done in single determination at 3 pH values (2.2, 4.5 and 6.8). For each pH and one reference, 40 uL of each compound is needed.
McIlvaine pH 2.2: To 2.076 g citric acid monohydrate and 0.043 g Na2HPO4×2H2O add 100 ml deionized water
McIlvaine pH 4.5: To 1.166 g citric acid monohydrate and 1.585 g Na2HPO4×2H2O add 100 ml deionized water
McIlvaine pH 6.8: To 0.476 g citric acid monohydrate and 2.753 g Na2HPO4×2H2O add 100 ml deionized water
With a suitable liquid handling device (Multipette® or a liquid handler) 390 uL of each buffer solution and 10 uL of compound is added to each well of a 96 deep well plate. The plates are covered firmly and shaken for 24 h on an over head shaker (at 54 RPM) at room temperature. The DMSO content in the final buffer is 2.5% v/v.
After 24 h the plates are centrifuged to remove droplets on the lid before opening (for ˜5 min at 2500 RPM).
The filtration is done under vacuum with Millipore 96 well filter plate. Filtrate is collected in a deep well plate and transferred to a suitable plate for UPLC analysis.
The reference plate is prepared by adding 10 uL of compound to 390 uL of 50:50 acetonitrile/water in a 96 deep well plate and transferred to a suitable plate for UPLC analysis. Wells are checked visually for precipitation, any presence noted under comments in reported results.
The samples are measured with UPLC-UV using the chromatographic method described below.
Waters Empower®2 software is used for generating Sample Sets (according to the plate layout), Sample Set Methods and Instrument Methods.
One Sample Set comprises the methods for three 96 well plates (one reference plate and two sample plates, and includes one Sample Set Method and one Instrument Method).
Data Processing and Analysis
The UV chromatograms collected at 254 nm are integrated and processed.
It is assumed that the compound is completely dissolved in the reference solution (50:50 acetonitrile/water)

[2] = Human liver microsome (HLM) metabolic stability assay; format: in vitro ADME; conditions: human liver microsomes
Procedure, shortened: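 Remaining parent measured by LC/MS/MS (ESI, MRM) at 5, 15, 30 and 60 min relative to 0 min. Incubation: 1 uM compound, HLMs, NADPH-started, 37° C., 60 min total, single replicate. Slope of ln(% remaining) gives t1/2 = 0.693/slope, then CLint, CLh and % Qh.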

[3] = target: human soluble guanylate cyclase alpha 1 and beta 1 subunits (sGC) (Homo sapiens (Human), UniProt Q02108+Q02153); assay: sGC cellular activator assay (cGMP, HTRF), in the presence and absence of 50% human serum; format: cell-based; conditions: CHO cells stably expressing human sGC alpha 1/beta 1, preincubated with 40 microM ODQ; cGMP by HTRF; Table 2 does not state whether with or without 50% human serum
Procedure, shortened: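 First, CHO-sGC (human α1β1) cells get 1 h ODQ at 40 microM with IBMX and 0.1% BSA. Finally, cGMP is quantified by HTRF and EC50 computed.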

[4] = pH 2.2, aqueous buffer, Solubility (pH 2.2)
[5] = pH 4.5, aqueous buffer, Solubility (pH 4.5)
[6] = pH 6.8, aqueous buffer, Solubility (pH 6.8)

Sequence of human soluble guanylate cyclase alpha 1 and beta 1 subunits (sGC) (Q02108 whole entry partner): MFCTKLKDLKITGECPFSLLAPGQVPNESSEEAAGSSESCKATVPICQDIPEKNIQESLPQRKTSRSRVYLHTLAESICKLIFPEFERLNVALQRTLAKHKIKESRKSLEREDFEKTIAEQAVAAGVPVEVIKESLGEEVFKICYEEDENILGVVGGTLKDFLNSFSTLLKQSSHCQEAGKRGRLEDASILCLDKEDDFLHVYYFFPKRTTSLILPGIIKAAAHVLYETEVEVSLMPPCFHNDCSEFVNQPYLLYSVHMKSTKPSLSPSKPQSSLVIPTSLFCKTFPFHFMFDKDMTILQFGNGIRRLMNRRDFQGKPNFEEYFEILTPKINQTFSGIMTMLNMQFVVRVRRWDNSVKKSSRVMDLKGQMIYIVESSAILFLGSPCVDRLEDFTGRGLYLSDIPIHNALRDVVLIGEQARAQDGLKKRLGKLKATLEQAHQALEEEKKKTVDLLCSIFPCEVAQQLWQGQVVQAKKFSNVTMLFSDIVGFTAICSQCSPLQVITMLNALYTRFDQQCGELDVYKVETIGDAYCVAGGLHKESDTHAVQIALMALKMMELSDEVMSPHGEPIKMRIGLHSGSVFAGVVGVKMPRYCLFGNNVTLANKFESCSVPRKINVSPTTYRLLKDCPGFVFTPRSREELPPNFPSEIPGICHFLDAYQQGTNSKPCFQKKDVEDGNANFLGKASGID
Sequence of human soluble guanylate cyclase alpha 1 and beta 1 subunits (sGC) (Q02153 whole entry): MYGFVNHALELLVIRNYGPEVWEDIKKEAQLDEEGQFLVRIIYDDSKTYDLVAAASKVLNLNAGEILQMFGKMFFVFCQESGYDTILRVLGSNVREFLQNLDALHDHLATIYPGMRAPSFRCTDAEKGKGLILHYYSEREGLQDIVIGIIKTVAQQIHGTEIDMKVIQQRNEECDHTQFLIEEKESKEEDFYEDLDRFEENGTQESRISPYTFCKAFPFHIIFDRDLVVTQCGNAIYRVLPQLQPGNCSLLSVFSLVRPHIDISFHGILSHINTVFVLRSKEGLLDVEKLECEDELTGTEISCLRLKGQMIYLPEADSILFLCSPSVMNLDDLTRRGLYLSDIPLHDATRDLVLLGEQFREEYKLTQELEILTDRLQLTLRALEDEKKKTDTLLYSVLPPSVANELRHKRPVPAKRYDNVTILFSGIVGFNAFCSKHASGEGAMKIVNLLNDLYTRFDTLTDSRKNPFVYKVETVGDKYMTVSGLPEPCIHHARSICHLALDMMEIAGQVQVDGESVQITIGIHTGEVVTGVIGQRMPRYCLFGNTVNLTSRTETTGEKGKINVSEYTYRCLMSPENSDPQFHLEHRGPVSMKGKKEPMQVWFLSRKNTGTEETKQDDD

| solubility at 24 h [1, 4] | solubility at 24 h [1, 5] | solubility at 24 h [1, 6] | Metabolic stability (Qh %), % hepatic blood flow [2] | EC50 [3] | SMILES |
| --- | --- | --- | --- | --- | --- |
| 110 µg/mL (≈ 193 µM) | 69 µg/mL (≈ 121 µM) | 69 µg/mL (≈ 121 µM) | <24% | 23 nM | Cc1cccc(-c2csc(N3C[C@@H]4C[C@]4(C(=O)O)C3)n2)c1OCc1cc(C#N)c2c(c1)CCN(C1CCOCC1)C2 [Compound 142] |
| 110 µg/mL (≈ 202 µM) | 70 µg/mL (≈ 128 µM) | 56 µg/mL (≈ 103 µM) | <24% | 9 nM | Cc1cccc(-c2csc(N3C[C@@H]4C[C@]4(C(=O)O)C3)n2)c1OCc1ccc2c(c1C)CCN(C1COC1)CC2 [Compound 143] |
| 110 µg/mL (≈ 192 µM) | 74 µg/mL (≈ 129 µM) | 62 µg/mL (≈ 108 µM) | <24% | 10 nM | Cc1cccc(-c2csc(N3C[C@@H]4C[C@]4(C(=O)O)C3)n2)c1OCc1ccc2c(c1C)CCN(C1CCOCC1)CC2 [Compound 144] |
| 110 µg/mL (≈ 202 µM) | 62 µg/mL (≈ 114 µM) | 28 µg/mL (≈ 51.3 µM) | <24% | 162 nM | Cc1ccc(OCc2ccc3c(c2)CCN(C2CCOCC2)C3)c(-c2csc(N3C[C@@H]4C[C@]4(C(=O)O)C3)n2)c1 [Compound 145] |
| 110 µg/mL (≈ 197 µM) | 59 µg/mL (≈ 105 µM) | 9.9 µg/mL (≈ 17.7 µM) | 26% | 57 nM | Cc1ccc(OCc2ccc3c(c2C)CCN(C2CCOCC2)C3)c(-c2csc(N3C[C@@H]4C[C@]4(C(=O)O)C3)n2)c1 [Compound 146] |
| > 140 µg/mL | < 0.1 µg/mL | < 0.1 µg/mL | <24% | 49 nM | Cc1ccc(OCc2ccc3c(c2)CCN(C2CCOCC2)CC3)c(-c2csc(N3C[C@@H]4C[C@]4(C(=O)O)C3)n2)c1 [Compound 147] |
| 93 µg/mL (≈ 175 µM) | 8.4 µg/mL (≈ 15.8 µM) | 1.1 µg/mL (≈ 2.07 µM) | <24% | 67 nM | Cc1ccc(OCc2ccc3c(c2)CCN(C2COC2)CC3)c(-c2csc(N3C[C@@H]4C[C@]4(C(=O)O)C3)n2)c1 [Compound 148] |
| 98 µg/mL (≈ 180 µM) | 37 µg/mL (≈ 67.8 µM) | 35 µg/mL (≈ 64.1 µM) | <24% | 34 nM | Cc1ccc(OCc2ccc3c(c2C)CCN(C2COC2)CC3)c(-c2csc(N3C[C@@H]4C[C@]4(C(=O)O)C3)n2)c1 [Compound 149] |
| 100 µg/mL (≈ 174 µM) | 44 µg/mL (≈ 76.7 µM) | 9.7 µg/mL (≈ 16.9 µM) | <24% | 24 nM | Cc1ccc(OCc2ccc3c(c2C)CCN(C2CCOCC2)CC3)c(-c2csc(N3C[C@@H]4C[C@]4(C(=O)O)C3)n2)c1 [Compound 150] |
| 110 µg/mL (≈ 197 µM) | 71 µg/mL (≈ 127 µM) | 54 µg/mL (≈ 96.5 µM) | <24% | 135 nM | Cc1cc(C)c(OCc2ccc3c(c2)CCN(C2CCOCC2)C3)c(-c2csc(N3C[C@@H]4C[C@]4(C(=O)O)C3)n2)c1 [Compound 151] |
| 110 µg/mL (≈ 192 µM) | 70 µg/mL (≈ 122 µM) | 53 µg/mL (≈ 92.4 µM) | <24% | 71 nM | Cc1cc(C)c(OCc2ccc3c(c2C)CCN(C2CCOCC2)C3)c(-c2csc(N3C[C@@H]4C[C@]4(C(=O)O)C3)n2)c1 [Compound 152] |
| 120 µg/mL (≈ 214 µM) | 72 µg/mL (≈ 129 µM) | 47 µg/mL (≈ 84 µM) | <24% | 14 nM | Cc1ccc(OCc2ccc3c(c2)CCN(C2CCOCC2)C3)c(-c2csc(N3C[C@@H]4C[C@]4(C(=O)O)[C@H]3C)n2)c1 [Compound 153] |
| 110 µg/mL (≈ 192 µM) | 65 µg/mL (≈ 113 µM) | 25 µg/mL (≈ 43.6 µM) | <24% | 4 nM | Cc1ccc(OCc2ccc3c(c2C)CCN(C2CCOCC2)C3)c(-c2csc(N3C[C@@H]4C[C@]4(C(=O)O)[C@H]3C)n2)c1 [Compound 154] |
| 96 µg/mL (≈ 167 µM) | 69 µg/mL (≈ 120 µM) | 61 µg/mL (≈ 106 µM) | <24% | 46 nM | Cc1cccc(-c2csc(N3C[C@H]4C[C@@]4(C(=O)O)[C@@H]3C)n2)c1OCc1ccc2c(c1C)CCN(C1CCOCC1)C2 [Compound 155] |
| > 140 µg/mL | 0.5 µg/mL (≈ 0.916 µM) | 8.9 µg/mL (≈ 16.3 µM) | <24% | 387 nM | Cc1cccc(-c2csc(N3C[C@H]4C[C@@]4(C(=O)O)[C@@H]3C)n2)c1OCc1ccc2c(c1C)CCN(C1COC1)C2 [Compound 156] |
| 97 µg/mL (≈ 169 µM) | 72 µg/mL (≈ 125 µM) | 63 µg/mL (≈ 110 µM) | <24% | 28 nM | Cc1cc(COc2c(C)cccc2-c2csc(N3C[C@H]4C[C@@]4(C(=O)O)[C@@H]3C)n2)cc2c1CN(C1CCOCC1)CC2 [Compound 157] |
| 94 µg/mL (≈ 172 µM) | 53 µg/mL (≈ 97.1 µM) | 65 µg/mL (≈ 119 µM) | <24% | 37 nM | Cc1cc(COc2c(C)cccc2-c2csc(N3C[C@H]4C[C@@]4(C(=O)O)[C@@H]3C)n2)cc2c1CN(C1COC1)CC2 [Compound 158] |
| 120 µg/mL (≈ 199 µM) | 95 µg/mL (≈ 157 µM) | 89 µg/mL (≈ 147 µM) | 30% | 44 nM | COC[C@H]1N(c2nc(-c3cccc(C)c3OCc3ccc4c(c3C)CCN(C3CCOCC3)C4)cs2)C[C@@H]2C[C@@]21C(=O)O [Compound 159] |
| 120 µg/mL (≈ 209 µM) | < 0.1 µg/mL | 75 µg/mL (≈ 131 µM) | 38% | 105 nM | COC[C@H]1N(c2nc(-c3cccc(C)c3OCc3ccc4c(c3C)CCN(C3CCC3)C4)cs2)C[C@@H]2C[C@@]21C(=O)O [Compound 160] |
| 110 µg/mL (≈ 191 µM) | 62 µg/mL (≈ 108 µM) | 76 µg/mL (≈ 132 µM) | <24% | 7 nM | COC[C@H]1N(c2nc(-c3cccc(C)c3OCc3cc(C)c4c(c3)CCN(C3COC3)C4)cs2)C[C@@H]2C[C@@]21C(=O)O [Compound 161] |
| 120 µg/mL (≈ 199 µM) | 82 µg/mL (≈ 136 µM) | 75 µg/mL (≈ 124 µM) | 39% | 4 nM | COC[C@H]1N(c2nc(-c3cccc(C)c3OCc3cc(C)c4c(c3)CCN(C3CCOCC3)C4)cs2)C[C@@H]2C[C@@]21C(=O)O [Compound 162] |
| 110 µg/mL (≈ 187 µM) | 77 µg/mL (≈ 131 µM) | 65 µg/mL (≈ 110 µM) | <24% | 345 nM | COC[C@H]1N(c2nc(-c3cc(C)ccc3OCc3ccc4c(c3)CCN(C3CCOCC3)C4)cs2)C[C@@H]2C[C@@]21C(=O)O [Compound 163] |
| 120 µg/mL (≈ 199 µM) | 75 µg/mL (≈ 124 µM) | 59 µg/mL (≈ 97.7 µM) | <24% | 108 nM | COC[C@H]1N(c2nc(-c3cc(C)ccc3OCc3ccc4c(c3C)CCN(C3CCOCC3)C4)cs2)C[C@@H]2C[C@@]21C(=O)O [Compound 164] |
| 120 µg/mL (≈ 203 µM) | 86 µg/mL (≈ 145 µM) | 77 µg/mL (≈ 130 µM) | <24% | 12 nM | CO[C@H]1CN(c2nc(-c3cccc(C)c3OCc3ccc4c(c3C)CCN(C3CCOCC3)C4)cs2)CC[C@H]1C(=O)O [Compound 165] |
